According to US11254695B2, “Soluble C5aR antagonists” (CHEMOCENTRYX, INC., priority 2016, dated 2022):
Values after ≈ are worked out from the molar mass of the structure shown. Where a name gives a salt, the structure may show the parent alone.

Test: Solubility of saturated solutions in D.I. water, quantified by LC-MS
Assay type: physicochemical
Conditions: thermodynamic from solid, saturated solution in D.I. water, shaken 3 hours at room temperature, average of four replicates
Method: Saturated solutions of compound were freshly prepared by adding 1 mL D.I. water into 0.8 mg compound powder. After shaking at room temperature for 3 hours, the samples were centrifuged under 14000 rpm for 15 minutes twice. The supernatants were carefully taken out and quantified by LC-MS. Solubility: 1.2±0.2 μg/mL (average of four replicates).
Work on `Cc1cccc(F)c1C(=O)N1CCC[C@H](C(=O)Nc2ccc(CO)c(C(F)(F)F)c2)[C@@H]1c1ccc(NC2CCCC2)cc1` yielded a solubility at 3 h of 1.2 ± 0.2 µg/mL (≈ 0.00201 mM).

Test: Solubility in Milli-Q water, examined with naked eye
Assay type: physicochemical
Conditions: thermodynamic from solid; arbitrary amount in 1 mL Milli-Q water, room temperature, clear solution by naked eye; not the maximum solubility; read-out: Solubility in H2O
Source text: Experiments with no visible particles by naked eye were considered as clear solutions. It is important to note that the reported solubility information is not the maximum solubility of the compounds in water.
Work on `Cc1ccc(NC(=O)[C@H]2CCCN(C(=O)c3c(C)cccc3F)[C@H]2c2ccc(N(C(=O)OCOC(=O)[C@@H](N)C(C)C)C3CCCC3)cc2)cc1C(F)(F)F` [Example 7, [cyclopentyl-[4-[(2R,3S)-1-(2-fluoro-6-methyl-benzoyl)-3-[[4-methyl-3-(trifluoromethyl)phenyl]carbamoyl]-2-piperidyl]phenyl]carbamoyl]oxymethyl (2S)-2-amino-3-methyl-butanoate] yielded a solubility of 1000 to 2000 µg/mL (≈ 1.32 to 2.65 mM). For `Cc1cccc(F)c1C(=O)N1CCC[C@H](C(=O)Nc2ccc(COC(=O)CNC(=O)[C@@H](N)C(C)C)c(C(F)(F)F)c2)[C@@H]1c1ccc(NC2CCCC2)cc1` [Example 14, [4-[[(2R,3S)-2-[4-(cyclopentylamino)phenyl]-1-(2-fluoro-6-methyl-benzoyl)piperidine-3-carbonyl]amino]-2-(trifluoromethyl)phenyl]methyl 2-[[(2S)-2-amino-3-methyl-butanoyl]amino]acetate], the solubility was 5000 µg/mL (≈ 6.63 mM). `Cc1ccc(NC(=O)[C@H]2CCCN(C(=O)c3c(C)cccc3F)[C@H]2c2ccc(N(C(=O)CNC(=O)[C@@H](N)CCCN)C3CCCC3)cc2)cc1C(F)(F)F` [Example 6, (2R,3S)-2-[4-[cyclopentyl-[2-[[(2S)-2,5-diaminopentanoyl]amino]acetyl]amino]phenyl]-1-(2-fluoro-6-methyl-benzoyl)-N-[4-methyl-3-(trifluoromethyl)phenyl]piperidine-3-carboxamide dihydrochloride] showed a solubility of 5000 µg/mL. For `Cc1cccc(F)c1C(=O)N1CCC[C@H](C(=O)Nc2ccc(COC(=O)CN)c(C(F)(F)F)c2)[C@@H]1c1ccc(NC2CCCC2)cc1` [Example 20, [4-[[(2R,3S)-2-[4-(cyclopentylamino)phenyl]-1-(2-fluoro-6-methyl-benzoyl)piperidine-3-carbonyl]amino]-2-(trifluoromethyl)phenyl]methyl 2-aminoacetate], the solubility was greater than 10000 µg/mL. In the case of `Cc1ccc(NC(=O)[C@H]2CCCN(C(=O)c3c(C)cccc3F)[C@H]2c2ccc(N(C(=O)CN)C3CCCC3)cc2)cc1C(F)(F)F` [Example 2, (2R,3S)-2-[4-[(2-aminoacetyl)-cyclopentyl-amino]phenyl]-1-(2-fluoro-6-methyl-benzoyl)-N-[4-methyl-3-(trifluoromethyl)phenyl]piperidine-3-carboxamide], the solubility is reported as greater than 5000 µg/mL. Compound `Cc1cccc(F)c1C(=O)N1CCC[C@H](C(=O)Nc2ccc(COC(=O)[C@@H](NC(=O)CN)C(C)C)c(C(F)(F)F)c2)[C@@H]1c1ccc(NC2CCCC2)cc1` [Example 15, [4-[[(2R,3S)-2-[4-(cyclopentylamino)phenyl]-1-(2-fluoro-6-methyl-benzoyl)piperidine-3-carbonyl]amino]-2-(trifluoromethyl)phenyl]methyl (2S)-2-[(2-aminoacetyl)amino]-3-methyl-butanoate] has a solubility of 5000 µg/mL (≈ 6.63 mM). In the case of `Cc1ccc(NC(=O)[C@H]2CCCN(C(=O)c3c(C)cccc3F)[C@H]2c2ccc(N(C(=O)CN(C)C)C3CCCC3)cc2)cc1C(F)(F)F` [Example 1, (2R,3S)-2-[4-[cyclopentyl-[2-(dimethylamino)acetyl]amino]phenyl]-1-(2-fluoro-6-methyl-benzoyl)-N-[4-methyl-3-(trifluoromethyl)phenyl]piperidine-3-carboxamide], the solubility is reported as greater than 10000 µg/mL. In the case of `Cc1cccc(F)c1C(=O)N1CCC[C@H](C(=O)Nc2ccc(COC(=O)c3cccc(CN4CCN(C)CC4)c3)c(C(F)(F)F)c2)[C@@H]1c1ccc(NC2CCCC2)cc1` [Example 23, [4-[[(2R,3S)-2-[4-(cyclopentylamino)phenyl]-1-(2-fluoro-6-methyl-benzoyl)piperidine-3-carbonyl]amino]-2-(trifluoromethyl)phenyl]methyl 3-[(4-methylpiperazin-1-yl)methyl]benzoate], the solubility is reported as greater than 1000 µg/mL. Compound `Cc1ccc(NC(=O)[C@H]2CCCN(C(=O)c3c(C)cccc3F)[C@H]2c2ccc(N(C(=O)OCc3ccc(OP(=O)(O)O)cc3)C3CCCC3)cc2)cc1C(F)(F)F` [Example 8, (4-phosphonooxyphenyl)methyl N-cyclopentyl-N-[4-[(2R,3S)-1-(2-fluoro-6-methyl-benzoyl)-3-[[4-methyl-3-(trifluoromethyl)phenyl]carbamoyl]-2-piperidyl]phenyl]carbamate] has a solubility of 1000 µg/mL (≈ 1.23 mM). Compound `Cc1ccc(NC(=O)[C@H]2CCCN(C(=O)c3c(C)cccc3F)[C@H]2c2ccc(N(C(=O)CNC(=O)CN)C3CCCC3)cc2)cc1C(F)(F)F` [Example 5, (2R,3S)-2-[4-[[2-[(2-aminoacetyl)amino]acetyl]-cyclopentyl-amino]phenyl]-1-(2-fluoro-6-methyl-benzoyl)-N-[4-methyl-3-(trifluoromethyl)phenyl]piperidine-3-carboxamide] has a solubility of 10000 µg/mL (≈ 14.4 mM). With `Cc1cccc(F)c1C(=O)N1CCC[C@H](C(=O)Nc2ccc(COC(=O)[C@H](C)N)c(C(F)(F)F)c2)[C@@H]1c1ccc(NC2CCCC2)cc1` [Example 18, [4-[[(2R,3S)-2-[4-(cyclopentylamino)phenyl]-1-(2-fluoro-6-methyl-benzoyl)piperidine-3-carbonyl]amino]-2-(trifluoromethyl)phenyl]methyl (2S)-2-aminopropanoate] the solubility was greater than 5000 µg/mL. `Cc1ccc(NC(=O)[C@H]2CCCN(C(=O)c3c(C)cccc3F)[C@H]2c2ccc(N(C3CCCC3)P(=O)(O)OC(=O)C(C)C)cc2)cc1C(F)(F)F` [Example 4, N-cyclopentyl-N-[4-[(2R,3S)-1-(2-fluoro-6-methyl-benzoyl)-3-[[4-methyl-3 (trifluoromethyl)phenyl]carbamoyl]-2-piperidyl]phenyl]-(2-methylpropanoyloxy)phosphonamidic acid] gave a solubility of 1000 µg/mL (≈ 1.37 mM). `Cc1cccc(F)c1C(=O)N1CCC[C@H](C(=O)Nc2ccc(COCOP(=O)(O)O)c(C(F)(F)F)c2)[C@@H]1c1ccc(NC2CCCC2)cc1` [Example 22, [4-[[(2R,3S)-2-[4-(cyclopentylamino)phenyl]-1-(2-fluoro-6-methyl-benzoyl)piperidine-3-carbonyl]amino]-2-(trifluoromethyl)phenyl]methoxymethyl dihydrogen phosphate] showed a solubility of 15000 µg/mL. With `Cc1cccc(F)c1C(=O)N1CCC[C@H](C(=O)Nc2ccc(COC(=O)C(N)C(C)C)c(C(F)(F)F)c2)[C@@H]1c1ccc(NC2CCCC2)cc1` (stereo in doubt) [Example 17, [4-[[(2R,3S)-2-[4-(cyclopentylamino)phenyl]-1-(2-fluoro-6-methyl-benzoyl)piperidine-3-carbonyl]amino]-2-(trifluoromethyl)phenyl]methyl (2R)-2-amino-3-methyl-butanoate] the solubility was 4000 µg/mL (≈ 5.74 mM). With `Cc1ccc(NC(=O)[C@H]2CCCN(C(=O)c3c(C)cccc3F)[C@H]2c2ccc(N(C(=O)OCOP(=O)(O)O)C3CCCC3)cc2)cc1C(F)(F)F` [Example 9, phosphonooxymethyl N-cyclopentyl-N-[4-[(2R,3S)-1-(2-fluoro-6-methyl-benzoyl)-3-[[4-methyl-3-(trifluoromethyl)phenyl]carbamoyl]-2-piperidyl]phenyl]carbamate] the solubility was greater than 10000 µg/mL. Compound `Cc1ccc(N(COP(=O)(O)O)C(=O)[C@H]2CCCN(C(=O)c3c(C)cccc3F)[C@H]2c2ccc(NC3CCCC3)cc2)cc1C(F)(F)F` [Example 11, [N-[(2R,3S)-2-[4-(cyclopentylamino)phenyl]-1-(2-fluoro-6-methyl-benzoyl)piperidine-3-carbonyl]-4-methyl-3-(trifluoromethyl)anilino]methyl dihydrogen phosphate] has a solubility greater than 5000 µg/mL. With `Cc1cccc(F)c1C(=O)N1CCC[C@H](C(=O)Nc2ccc(COC(=O)CNC(=O)CN)c(C(F)(F)F)c2)[C@@H]1c1ccc(NC2CCCC2)cc1` [Example 13] the solubility was 10000 µg/mL (≈ 14 mM). For `Cc1ccc(NC(=O)[C@H]2CCCN(C(=O)c3c(C)cccc3F)[C@H]2c2ccc(N(C3CCCC3)P(=O)(O)N[C@@H](Cc3c[nH]cn3)C(=O)O)cc2)cc1C(F)(F)F` [Example 3, 2-[[[N-cyclopentyl-4-[(2R,3S)-1-(2-fluoro-6-methyl-benzoyl)-3-[[4-methyl-3-(trifluoromethyl)phenyl]carbamoyl]-2-piperidyl]anilino]-hydroxy-phosphoryl]amino]-3-(1H-imidazol-4-yl)propanoic acid], the solubility was 5000 µg/mL (≈ 6.26 mM). For `Cc1cccc(F)c1C(=O)N1CCC[C@H](C(=O)Nc2ccc(COC(=O)[C@@H](NC(=O)[C@@H](N)C(C)C)C(C)C)c(C(F)(F)F)c2)[C@@H]1c1ccc(NC2CCCC2)cc1` [Example 16, [4-[[(2R,3S)-2-[4-(cyclopentylamino)phenyl]-1-(2-fluoro-6-methyl-benzoyl)piperidine-3-carbonyl]amino]-2-(trifluoromethyl)phenyl]methyl (2S)-2-[[(2S)-2-amino-3-methyl-butanoyl]amino]-3-methyl-butanoate], the solubility was 5000 µg/mL (≈ 6.28 mM). Work on `Cc1ccc(NC(=O)[C@H]2CCCN(C(=O)c3c(C)cccc3F)[C@H]2c2ccc(N(C(=O)OCOC(=O)/C=C/C(=O)O)C3CCCC3)cc2)cc1C(F)(F)F` [Example 10, (E)-4-[[cyclopentyl-[4-[(2R,3S)-1-(2-fluoro-6-methyl-benzoyl)-3-[[4-methyl-3-(trifluoromethyl)phenyl]carbamoyl]-2-piperidyl]phenyl]carbamoyl]oxymethoxy]-4-oxo-but-2-enoic acid] yielded a solubility of 1000 µg/mL (≈ 1.33 mM).

Test: physchem
Assay type: physicochemical
Conditions: 25 °C, pH 7, aqueous buffer, thermodynamic from solid
Method: Saturated solutions of compound in pH 7 buffers were left overnight at room temperature (25° C.) before they were centrifuged. The supernatants were taken out and quantified. Solubility: 0.053 μg/mL.
`Cc1ccc(NC(=O)[C@H]2CCCN(C(=O)c3c(C)cccc3F)[C@H]2c2ccc(NC3CCCC3)cc2)cc1C(F)(F)F` showed a solubility of 0.053 µg/mL (≈ 9.11e-05 mM).
